Laboratory results as given in patent publication US20020002171A1, “Materials and methods for killing nematodes and nematode eggs” (priority 2000, published 2002).

Tested on: Caenorhabditis elegans
Test: C. elegans L1 nematicidal dose response in 96-well plates, 5 day visual score (Example 2; same procedure for Example 7, Table 3)
Assay type: in vivo
Design: key to 5 Day Visual Score V1 / 5 Day Visual Score V2 / 5 Day Visual Score V3 / 5 Day Visual Score V4 / 5 Day Visual Score V6 / 5 Day Visual Score V5 / Initial HTS Run Visual Score / Follow-up HTS Run Visual Score: Dead: only stiff L1s (no movement); Dead (L4): worms are dead, but at a later larval stage; majority of worms are L1 (based on size) worms move when plate is tapped; majority of worms are L2 (based on size); majority of worms are L3 (based on size); majority of worms are L4 (based on size); AD: majority of worms are adult; #AD: 5 adult worms or less; B!: sterile (0-25 progeny); B: low broodsize (25-100 progeny); ˜B: moderate broodsize (100-250 progeny); <: reduced broodsize (250-500 progeny); OK: no effect (˜1000+ progeny)
In short: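 L1 larvae, 20 per well in NGM with 1% E. coli HB101 and antibiotic/antimycotic, exposed to six 3-fold dilutions from 70 μM down to 0.3 μM (1.4% DMSO at top). Held at 20° C; viability scored visually under 100× dissecting microscope on day 5.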

[1] = dose response, dilution V1, day 5
[2] = dose response, dilution V3, day 5
[3] = dose response, dilution V4, day 5
[4] = dose response, dilution V5, day 5
[5] = dose response, dilution V6, day 5
[6] = dose response, dilution V2, day 5
[7] = 0.3 μM, C. elegans L1, scored day 5
[8] = 0.9 μM, C. elegans L1, scored day 5
[9] = 23.3 μM, C. elegans L1, scored day 5
[10] = 70 μM, C. elegans L1, scored day 5

SMILES	Follow-up HTS Run % Run	Follow-up HTS Run Visual Score	Follow-up HTS Run mOD	Initial HTS Run % Run	Initial HTS Run Visual Score	Initial HTS Run mOD	5 Day Visual Score V1 [1]	5 Day Visual Score V3 [2]	5 Day Visual Score V4 [3]	5 Day Visual Score V5 [4]	5 Day Visual Score V6 [5]	5 Day Visual Score V2 [6]	also measured
Fc1ccc(N2CCN(c3nc(NCc4c(F)cccc4F)ns3)CC2)cc1 [compound 296]	109%	L4	175 mOD	96%	L4/AD/B!-Few Eggs	106 mOD	Dead	B (low broodsize (25-100 progeny))	OK (no effect (˜1000+ progeny))	OK (no effect (˜1000+ progeny))	< (reduced broodsize (250-500 progeny))	–	–
C=CCN(CC=C)c1nc(NCCCCCCCCCC)ns1 [compound 282]	122%	Dead	197 mOD	135%	Dead	148 mOD	Dead	–	OK (no effect (˜1000+ progeny))	OK (no effect (˜1000+ progeny))	OK (no effect (˜1000+ progeny))	Dead	–
CCN(Cc1ccccc1)c1nc(NCCc2ccc(F)cc2)ns1 [compound 241]	88%	B (low broodsize (25-100 progeny))	141 mOD	114%	–	125 mOD	–	OK (no effect (˜1000+ progeny))	OK (no effect (˜1000+ progeny))	OK (no effect (˜1000+ progeny))	OK (no effect (˜1000+ progeny))	˜B (moderate broodsize (100-250 progeny))	–
Cc1ccc(-c2noc(C3CCC(CNC(=O)Nc4ccc(OC(F)(F)F)cc4)CC3)n2)cc1C (centres unmarked) [AKC 112]	–	–	–	–	–	–	–	–	–	–	–	–	5 Day Visual Score V6 [7]: OK (no effect (˜1000+ progeny)); 5 Day Visual Score V5 [8]: #AD/˜B
C=CCN(CC=C)c1nc(NCc2ccccc2)ns1 [compound 327]	106%	–	171 mOD	105%	L2/L3(Dead L3)	115 mOD	–	–	–	–	–	–	5 Day Visual Score V1 (dose response, dilution V1, 5 day): Dead; 5 Day Visual Score V2 (dose response, dilution V2, 5 day): B (low broodsize (25-100 progeny)); 5 Day Visual Score V3 (dose response, dilution V3, 5 day): ˜B (moderate broodsize (100-250 progeny)); 5 Day Visual Score V4 (dose response, dilution V4, 5 day): OK (no effect (˜1000+ progeny)); 5 Day Visual Score V5 (dose response, dilution V5, 5 day): OK (no effect (˜1000+ progeny)); 5 Day Visual Score V6 (dose response, dilution V6, 5 day): OK (no effect (˜1000+ progeny))
Cc1ccc(C(CC(=O)c2ccc(C)c(C)c2)Nc2cc(Br)c(C)c(Br)c2)o1 (centres unmarked) [AKC 130]	–	–	–	–	–	–	–	–	–	–	–	–	5 Day Visual Score V5 [8]: OK (no effect (˜1000+ progeny)); 5 Day Visual Score V4 (2.6 μM, C. elegans L1, scored day 5): #AD/˜B; 5 Day Visual Score V2 [9]: #AD/-B; 5 Day Visual Score V1 [10]: Dead
CCCc1ccc(C(Nc2ccc(-c3ccccc3)cc2)C2CCCCC2=O)cc1 (centres unmarked) [AKC 132]	–	–	–	–	–	–	–	–	–	–	–	–	5 Day Visual Score V6 [7]: Dead; 5 Day Visual Score V3 (7.8 μM, C. elegans L1, scored day 5): Dead; 5 Day Visual Score V2 [9]: Dead; 5 Day Visual Score V1 [10]: Dead(L2)
FC(F)(F)c1cccc(N2CCN(c3nc(NCC4CCCCC4)ns3)CC2)c1 [compound 226]	104%	–	167 mOD	107%	–	118 mOD	L1	OK (no effect (˜1000+ progeny))	OK (no effect (˜1000+ progeny))	OK (no effect (˜1000+ progeny))	OK (no effect (˜1000+ progeny))	˜B (moderate broodsize (100-250 progeny))	–
CCOC(=O)CCN(Cc1ccccc1)c1nc(NCCC(c2ccccc2)c2ccccc2)ns1 [compound 290]	99%	L4/AD/B	159 mOD	101%	L4/AD/B	111 mOD	Dead	OK (no effect (˜1000+ progeny))	OK (no effect (˜1000+ progeny))	OK (no effect (˜1000+ progeny))	OK (no effect (˜1000+ progeny))	–	–
CC1CC(C)CN(c2nc(NCc3ccccc3)ns2)C1 (centres unmarked) [compound 264]	110%	L4/AD/B	177 mOD	104%	L4/AD/B	114 mOD	L2	< (reduced broodsize (250-500 progeny))	OK (no effect (˜1000+ progeny))	OK (no effect (˜1000+ progeny))	OK (no effect (˜1000+ progeny))	–	–
CCCCC(CC)CN(CC(CC)CCCC)c1nc(N2CCN(c3c(C)cccc3C)CC2)ns1 (centres unmarked) [compound 230]	63%	3AD/B	101 mOD	121%	Dead/1AD/B!	133 mOD	Dead	–	< (reduced broodsize (250-500 progeny))	OK (no effect (˜1000+ progeny))	OK (no effect (˜1000+ progeny))	–	–
CCN(CC)C(=O)C1CCCN(c2nc(NCc3ccccc3)ns2)C1 (centres unmarked) [compound 265]	111%	–	178 mOD	108%	–	119 mOD	–	OK (no effect (˜1000+ progeny))	OK (no effect (˜1000+ progeny))	OK (no effect (˜1000+ progeny))	OK (no effect (˜1000+ progeny))	OK (no effect (˜1000+ progeny))	–
CCCCCCCCCCNc1nsc(N(CC(C)C)CC(C)C)n1 [compound 281]	128%	Dead	206 mOD	141%	Dead	155 mOD	Dead	–	OK (no effect (˜1000+ progeny))	OK (no effect (˜1000+ progeny))	OK (no effect (˜1000+ progeny))	Dead	–
O=C(NCCc1ccccc1F)C1C(c2ccc(F)cc2)=NOC1c1ccc(-c2ccccc2)cc1 (centres unmarked) [AKC 2153]	–	–	–	–	–	–	–	–	–	–	–	–	5 Day Visual Score V2 [9]: L1; 5 Day Visual Score V1 [10]: L1
CN(Cc1ccccc1)c1nc(NCc2c(F)cccc2F)ns1 [compound 301]	127%	B! (sterile (0-25 progeny))	204 mOD	111%	B!-Few Eggs	122 mOD	–	OK (no effect (˜1000+ progeny))	OK (no effect (˜1000+ progeny))	OK (no effect (˜1000+ progeny))	OK (no effect (˜1000+ progeny))	< (reduced broodsize (250-500 progeny))	–
